Data reported in patent US8093250B2, “2-aminocarbonyl-pyridine derivatives” (Actelion Pharmaceuticals Ltd., priority 2006, dated 2012).

Molecular target: T1, human P2Y12 receptor (Homo sapiens, UniProt Q9H244)
T1 construct: expressed in transfected cells; host or cells: Chinese Hamster Ovary (CHO) cells
Experiment: P2Y12 receptor binding assay
Conditions: CHO cells with recombinant human P2Y12 receptor; tritium-labeled 2-methyl-S-ADP; 2 hours at RT
Experimental: Chinese Hamster Ovary (CHO) cells with recombinant expression of the human P2Y12 receptor were cultured in 24 well cell-culture plates. Cells were washed three times with binding buffer (50 mM Tris pH 7.4, 100 mM NaCl, 1 mM EDTA, 0.5% BSA). The cells were then incubated with 0.5 ml per well binding buffer containing tritium-labeled 2-methyl-thio-adenosine 5′-diphosphate (2-methyl-S-ADP) (between 100'000 and 300'000 dpm per well) and various concentrations of test compounds. After incubation at RT for 2 hours, cells were washed three times with binding buffer. Then, cells were solubilized by addition of 0.5 ml solubilization buffer (SDS, NaOH, EDTA). The content of each well was then transferred into beta-counter vials and 2.0 ml of Ultima Gold Scintillation liquid was added.

T1 sequence (Q9H244 whole entry): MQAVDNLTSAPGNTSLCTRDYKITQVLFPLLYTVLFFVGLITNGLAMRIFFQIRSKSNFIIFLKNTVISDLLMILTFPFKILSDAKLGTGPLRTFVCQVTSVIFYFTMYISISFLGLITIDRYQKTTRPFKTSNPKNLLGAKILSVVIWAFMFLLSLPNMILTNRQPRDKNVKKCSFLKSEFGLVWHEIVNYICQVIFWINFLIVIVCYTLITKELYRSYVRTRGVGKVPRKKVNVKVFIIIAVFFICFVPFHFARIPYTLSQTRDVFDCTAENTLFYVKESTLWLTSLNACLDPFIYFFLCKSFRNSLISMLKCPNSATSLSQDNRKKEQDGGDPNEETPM

| IC50 [nM] | Compound |
| --- | --- |
| 109 | CCCCOC(=O)N1CCN(C(=O)[C@@H](NC(=O)c2cc(N3CC[C@H](OC)C3)cc(-c3ccccc3)n2)C(C)C)CC1 [Example 69, 4-((S)-2-{[4-((S)-3-methoxy-pyrrolidin-1-yl)-6-phenyl-pyridine-2-carbonyl]-amino}-3-methyl-butyryl)-piperazine-1-carboxylic acid butyl ester] |
| 40 | CCOC(=O)N1CCN(C(=O)[C@H](Cc2nn[nH]n2)NC(=O)c2cc(-c3ccccc3)cc(-c3ccccc3)n2)CC1 [Example 66, 4-[(S)-2-[(4,6-diphenyl-pyridine-2-carbonyl)-amino]-3-(2H-tetrazol-5-yl)-propionyl]-piperazine-1-carboxylic acid ethyl ester] |
| 510 | CCOC(=O)N1CCN(C(=O)[C@H](CCC(=O)O)NC(=O)c2nc(-c3ccccc3)cc(C3CC3)c2OC)CC1 [Example 71, 4-{(S)-4-carboxy-2-[(4-cyclopropyl-3-methoxy-6-phenyl-pyridine-2-carbonyl)-amino]-butyryl}-piperazine-1-carboxylic acid ethyl ester] |
| 94 | CCOC(=O)N1CCN(C(=O)[C@H](CCC(=O)O)NC(=O)c2cc(OC3CCOC3)cc(-c3ccccc3)n2)CC1 (stereo partly drawn) [Example 37, 4-((S)-4-carboxy-2-{[6-phenyl-4-(tetrahydro-furan-3-yloxy)-pyridine-2-carbonyl]-amino}-butyryl)-piperazine-1-carboxylic acid ethyl ester] |
| 386 | CCCCNc1cc(C(=O)N[C@@H](CCC(=O)O)C(=O)N2CCN(C(=O)OCC)CC2)nc(-c2ccccc2)c1F [Example 75, 4-{(S)-2-[(4-butylamino-5-fluoro-6-phenyl-pyridine-2-carbonyl)-amino]-4-carboxy-butyryl}-piperazine-1-carboxylic acid ethyl ester] |
| 67 | CCOC(=O)N1CCN(C(=O)[C@H](CCC(=O)O)NC(=O)c2cc(-c3ccsc3)cc(-c3ccccc3)n2)CC1 [Example 32, 4-{(S)-4-carboxy-2-[(6-phenyl-4-thiophen-3-yl-pyridine-2-carbonyl)-amino]-butyryl}-piperazine-1-carboxylic acid ethyl ester] |
| 96 | CCOC(=O)N1CCN(C(=O)[C@H](CCC(=O)O)NC(=O)c2cc(CCC(C)(C)O)cc(-c3ccccc3)n2)CC1 [Example 28, 4-((S)-4-carboxy-2-{[4-(3-hydroxy-3-methyl-butyl)-6-phenyl-pyridine-2-carbonyl]-amino}-butyryl)-piperazine-1-carboxylic acid ethyl ester] |
| 204 | CCOC(=O)N1CCN(C(=O)[C@H](CO)NC(=O)c2cc(-c3ccccc3)cc(-c3ccccc3)n2)CC1 [Example 24, 4-{(S)-2-[(4,6-diphenyl-pyridine-2-carbonyl)-amino]-3-hydroxy-propionyl}-piperazine-1-carboxylic acid ethyl ester] |

| Compound | IC50 [nM] |
| --- | --- |
| CCOC(=O)N1CCN(C(=O)[C@H](CCC(=O)O)NC(=O)c2cc(Cl)cc(-c3ccccc3)n2)CC1 [Example 1, 4-{(S)-4-carboxy-2-[(4-chloro-6-phenyl-pyridine-2-carbonyl)-amino]-butyryl}-piperazine-1-carboxylic acid ethyl ester] | 34 |
| CCCCOC(=O)N1CCN(C(=O)[C@H](CCC(=O)OC(C)(C)C)NC(=O)c2cc(N3CC[C@H](OC)C3)cc(-c3ccccc3)n2)CC1 [Example 72, 4-((S)-4-tert-butoxycarbonyl-2-{[4-((S)-3-methoxy-pyrrolidin-1-yl)-6-phenyl-pyridine-2-carbonyl]-amino}-butyryl)-piperazine-1-carboxylic acid butyl ester] | 1760 |
| CCOC(=O)N1CCN(C(=O)[C@H](CCC(=O)OC(C)(C)C)NC(=O)c2cc(Cl)cc(-c3ccccc3)n2)CC1 [Example 39, 4-{(S)-4-O-tert-butoxycarbonyl-2-[(4-chloro-6-phenyl-pyridine-2-carbonyl)-amino]-butyryl}-piperazine-1-carboxylic acid ethyl ester] | 2150 |
